This passage reports IC50 results from patent US6815439B2, “Substituted aza-oxindole derivatives” (SmithKline Beecham Corporation, priority 1999, dated 2004).

What all share (type): biochemical
In one assay the target is CDK2 (Homo sapiens, UniProt P24941). Briefly: CDK2 substrate phosphorylation assay. The conditions noted are these: kinase inhibition, Table 3. Here is the method:
Cyclin dependent protein kinase assays utilized the peptides Biotin-aminohexyl-[…] and Biotin-aminohexyl-[…]-NH2 as phosphoryl group acceptors. CDK2 was expressed utilizing a baculovirus expression system and was partially purified to comprise 20-80% of total protein, with no detectable competing reactions present. Typically, assays were performed by incubating enzyme (0.2-10 nM), with and without inhibitor, one of the two peptide substrates ([…]), [γ-^32P]ATP ([…]), and 10-20 mM Mg^2+ for periods of time generally within the range 10-120 min. Reactions were terminated with 0.2-2 volumes of either 20% acetic acid or 50-100 mM EDTA buffered to pH 7 (substrate consumption <20%). The buffer employed in enzyme assays was either 30 mM HEPES 7.4 containing 0.15 M NaCl and 5% DMSO, the buffer 50 mM MOPS 7.0 containing 0.15 M NaCl and 5% DMSO, or the buffer 100 mM HEPES pH 7.5 containing 0.1 mg/mL BSA and 5% DMSO. Inhibitors were diluted in 100% DMSO prior to addition into the assay. Detection of peptide phosphorylation was accomplished by scintillation counting following either collection of peptide onto phosphocellulose filters (for reactions stopped with acetic acid), collection of peptide in wells of 96 well plates coated with Streptavidin (Pierce) (reactions were stopped with EDTA), or addition of Avidin coated Scintillant impregnated beads (Scintillation Proximity Assays from Amersham; reactions were stopped with EDTA).

In another assay the target is T1, VEGFR-2 (Homo sapiens, UniProt P35968).
T1 construct: The kinase domain of the enzyme was purified to homogeneity from a baculovirus expression system; made in house
Briefly: VEGFR-2 kinase assay. The conditions noted are these: kinase inhibition, Table 3; read-out: VEGFR2 (IC50). Here is the method: The peptide substrate used in the VEGFR-2 assay was biotin-aminohexyl-[…]-NH2. The kinase domain of the enzyme was purified to homogeneity from a baculovirus expression system. The enzyme was preactivated on ice for 15 min in the presence of 100 μM ATP and 20 mM MgCl2, and stored at −80° C. until needed for assay. The activated enzyme was diluted to 0.4 nM into a 60 μl reaction containing 100 mM HEPES, pH 7.5, 5 μM ATP, 10 mM MgCl2, 5 μM peptide, 0.1 mM DTT, 0.05 mg/ml BSA, and an inhibitor at varying concentrations. The controls were reactions in the presence (negative controls) or absence (positive controls) of 50 mM EDTA. Reactions were incubated for 30 min at room temperature, and then quenched by the addition of EDTA to 60 mM in 210 μl. The quenched samples (190 μl) were transferred to a neutravidin-coated plate (Pierce) and incubated at room temperature for 40 min to allow biotinylated peptide to bind to the neutravidin. The unbound components of the reaction were removed by washing with a plate washer, then 200 μl HRP-PY20 anti-phosphotyrosine antibody conjugate was added to each well. After incubation for 40 min, the plate was washed to remove any unbound anitbody. A HRP substrate, K-blue (Neogen) was added and the reaction was quenched with Red Stop (Neogen) after 20 min. The absorbance of the wells was read at A650 in a plate reader. IC50 values were obtained by fitting raw data to A650=VMAX*(1−[I]/IC50+[I])))+b, where b is background.

The next assay deals with T2, c-fms (Homo sapiens, UniProt P07333).
T2 construct: The c-fms intracellular domain was expressed from a baculovirus expression system; GST (N); made in house
T2 sequence (P07333 539-972 limits assumed): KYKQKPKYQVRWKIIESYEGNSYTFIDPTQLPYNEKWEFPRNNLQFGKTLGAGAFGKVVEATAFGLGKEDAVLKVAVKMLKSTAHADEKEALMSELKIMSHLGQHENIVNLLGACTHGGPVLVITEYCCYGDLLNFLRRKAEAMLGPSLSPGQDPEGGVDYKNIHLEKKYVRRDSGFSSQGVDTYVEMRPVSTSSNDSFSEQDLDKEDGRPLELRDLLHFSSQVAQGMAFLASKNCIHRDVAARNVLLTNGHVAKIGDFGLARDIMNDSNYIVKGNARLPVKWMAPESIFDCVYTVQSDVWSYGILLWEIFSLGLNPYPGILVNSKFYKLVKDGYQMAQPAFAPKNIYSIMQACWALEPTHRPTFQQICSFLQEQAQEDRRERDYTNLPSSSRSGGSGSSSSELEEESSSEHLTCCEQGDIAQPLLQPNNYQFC
Briefly: c-fms protein kinase assay. Conditions: kinase inhibition, Table 3. Here is the method: c-fms protein kinase assays utilized the peptide substrate, biotin-[…]-NH2 as the phosphoryl group acceptor. The c-fms intracellular domain was expressed from a baculovirus expression system, as an amino-terminal GST fusion protein, and purified to homogeneity using Glutathione agarose from Sigma Chemical Co. Maximum activation of the enzyme was achieved by preactivation at room temperature for 120 min in the presence of 100 μM ATP and 15 mM MgCl2, This enzyme stock was diluted to 150 nM prior to using in the assay. Typically assays were performed in white, opaque, 96-well plates in a 45 ul assay volume including 15 ul 6% DMSO, with or without compounds, 15 ul of the preactivated, diluted enzyme, and 15 ul of a substrate mixture. Reactions contained 50 mM HEPES, pH 7.5, 1.7 μM ATP, 15 mM MgCl2, 3 μM peptide, 2.5 mM DTT, 50 mM NaCl and 0.15 uCi/assay [□□^32P]ATP. The controls were reactions in the presence (negative controls) or absence (positive controls) of 50 mM EDTA. Reactions were allowed to proceed for 90 min at room temperature. The reaction products were quantified using Scintillation Proximity technolgy. The reactions were quenched by the addition of 200 ul of a solution containing 0.3 mg streptavidin SPA beads from Amersham, 50 mM EDTA, 0.1% TX-100, 50 uM ATP, in PBS, pH7.2 (phosphate buffered solution). Plates were sealed and counted in a Packard Topcount scintillation counter. IC50 values were obtained by fitting raw data to the equation y=Vmax*(1−(x/(k+x))).

Structures are written as SMILES.

The term IC50 denotes the concentration that inhibits the measured activity by half.

T1 sequence (P35968 834-1162 limits assumed, species assumed): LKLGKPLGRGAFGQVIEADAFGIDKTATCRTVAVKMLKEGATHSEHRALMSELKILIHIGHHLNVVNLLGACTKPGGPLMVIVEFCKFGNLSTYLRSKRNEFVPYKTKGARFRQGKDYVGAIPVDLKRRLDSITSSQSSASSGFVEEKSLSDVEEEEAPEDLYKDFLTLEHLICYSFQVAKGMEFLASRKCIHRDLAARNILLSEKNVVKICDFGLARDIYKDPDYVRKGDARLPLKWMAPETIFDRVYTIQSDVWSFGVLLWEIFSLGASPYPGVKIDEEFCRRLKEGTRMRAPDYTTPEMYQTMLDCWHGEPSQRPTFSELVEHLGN

`NS(=O)(=O)c1ccc(NC=C2C(=O)Nc3ccncc32)cc1` [Example 1, 4-{[(2-Oxo-1,2-dihydro-3H-pyrrolo[3,2-c]pyridin-3-ylidene)methyl]amino}benzenesulfonamide]: the figures for the 50% inhibitory concentration (IC50) on CDK2 and on VEGFR-2 were 10 to 100 nM and 1000 to 10000 nM, respectively.
For the compound `NS(=O)(=O)c1ccc(NC=C2C(=O)Nc3cnccc32)cc1` [Example 2, 4-{[(2-Oxo-1,2-dihydro-3H-pyrrolo[2,3-c]pyridin-3-ylidene)methyl]amino}benzenesulfonamide], the IC50 at CDK2 was in the range of 10 to 100 nM.
Regarding `O=C1Nc2cccnc2C1=CNc1ccc2cn[nH]c2c1` [Example 3, 3-[(1H-Indazol-6-ylamino)methylidene]-1H-pyrrolo[3,2-b]pyridin-2-one], at VEGFR-2, the IC50 is 1000 to 10000 nM.
Still for that read-out and setting: then `O=C1Nc2cccnc2C1=CNc1ccc2ncccc2c1` [Example 4, 3-[(6-Quinolinylamino)methylidene]-1,3-dihydro-2H-pyrrolo[3,2-b]pyridin-2-one], with 1000 to 10000 nM.
`NS(=O)(=O)c1ccc(NC=C2C(=O)Nc3ncccc32)cc1` [Example 5, 4-{[(2-Oxo-1,2-dihydro-3H-pyrrolo[2,3-b]pyridin-3-ylidene)methyl]amino}benzenesulfonamide]: the IC50 against CDK2 lay in the range of 100 to 1000 nM; at VEGFR-2, 1000 to 10000 nM.
As for `O=C1Nc2ncccc2C1=CNc1ccc2cn[nH]c2c1` [Example 6, 3-[(1H-Indazol-6-ylamino)methylidene]-1H-pyrrolo[2,3-b]pyridin-2-one], the concentration for half-maximal inhibition (IC50) against c-fms fell in the range of 1000 to 10000 nM; on VEGFR-2, 100 to 1000 nM.
In the case of `O=C1Nc2ncccc2C1=CNc1ccc2ncccc2c1` [Example 7, 3-[(6-Quinolinylamino)methylidene]-1,3-dihydro-2H-pyrrolo[2,3-b]pyridin-2-one], the half-maximal inhibitory concentration (IC50) at VEGFR-2 is 1000 to 10000 nM.
`NS(=O)(=O)c1ccc(NC=C2C(=O)Nc3ncc(-c4ccccc4)cc32)cc1` [Example 8, 4-{[(2-Oxo-5-phenyl-1,2-dihydro-3H-pyrrolo[2,3-b]pyridin-3-ylidene)methyl]amino}benzenesulfonamide]: the IC50 on CDK2 fell in the range of 1000 to 10000 nM.
In turn, `O=C1Nc2ncc(-c3ccccc3)cc2C1=CNc1ccc2cn[nH]c2c1` [Example 9, 3-[(1H-Indazol-6-ylamino)methylidene]-5-phenyl-1H-pyrrolo[2,3-b]pyridin-2-one] registered an IC50 against c-fms of 1000 to 10000 nM.
The same measure, in the same setting: then `O=C1Nc2ncc(-c3ccccc3)cc2C1=CNc1ccc2ncccc2c1` [Example 10, 5-Phenyl-3-[(6-quinolinylamino)methylidene]-1,3-dihydro-2H-pyrrolo[2,3-b]pyridin-2-one], with 1000 to 10000 nM.
`NS(=O)(=O)c1ccc(NC=C2C(=O)Nc3ncc(-c4ccco4)cc32)cc1` [Example 11, 4-({[5-(2-Furyl)-2-oxo-1,2-dihydro-3H-pyrrolo[2,3-b]pyridin-3-ylidene]methyl}amino)benzenesulfonamide]: the concentration for half-maximal inhibition (IC50) on CDK2 was in the range of 10 to 100 nM; against c-fms it was 100 to 1000 nM; on VEGFR-2, 1000 to 10000 nM.
In the same order, the values of `O=C1Nc2ncc(-c3ccco3)cc2C1=CNc1ccc2cn[nH]c2c1` [Example 12, 5-(2-Furyl)-3-[(1H-indazol-6-ylamino)methylidene]-1H-pyrrolo[2,3-b]pyridin-2-one] are 1000 to 10000 nM, 1000 to 10000 nM and 100 to 1000 nM.
With `O=C1Nc2ncc(-c3ccco3)cc2C1=CNc1ccc2ncccc2c1` [Example 13, 5-(2-Furyl)-3-[(6-quinolinylamino)methylidene]-1,3-dihydro-2H-pyrrolo[2,3-b]pyridin-2-one], the IC50 on c-fms and on VEGFR-2 was 1000 to 10000 nM in each case.
For the compound `NS(=O)(=O)c1ccc(NC=C2C(=O)Nc3ncc(-c4ccsc4)cc32)cc1` [Example 14, 4-({[2-Oxo-5-(3-thienyl)-1,2-dihydro-3H-pyrrolo[2,3-b]pyridin-3-ylidene]methyl}amino)benzenesulfonamide], the half-inhibitory concentration (IC50) against CDK2, against c-fms and on VEGFR-2 was 100 to 1000 nM in each case.
As for `O=C1Nc2ncc(-c3ccsc3)cc2C1=CNc1ccc2cn[nH]c2c1` [Example 15, 3-[(1H-Indazol-6-ylamino)methylidene]-5-(3-thienyl)-1,3-dihydro-2H-pyrrolo[2,3-b]pyridin-2-one], the results for the IC50 against CDK2, against c-fms and at VEGFR-2 were 100 to 1000 nM, 1000 to 10000 nM and 1000 to 10000 nM, respectively.
On to `O=C1Nc2ncc(-c3ccsc3)cc2C1=CNc1ccc2ncccc2c1` [Example 16, 3-[(6-Quinolinylamino)methylidene]-5-(3-thienyl)-1,3-dihydro-2H-pyrrolo[2,3-b]pyridin-2-one], for which the half-inhibitory concentration (IC50) against c-fms lay in the range of 100 to 1000 nM; on VEGFR-2, 1000 to 10000 nM.
With `NS(=O)(=O)c1ccc(NC=C2C(=O)Nc3ncc(Br)cc32)cc1` [Example 17, 4-{[(5-Bromo-2-oxo-1,2-dihydro-3H-pyrrolo[2,3-b]pyridin-3-ylidene)methyl]amino}benzenesulfonamide], the IC50 at CDK2 lay within 10 to 100 nM; on c-fms, 1000 to 10000 nM; at VEGFR-2, 100 to 1000 nM.
Consider `O=C1Nc2ncc(Br)cc2C1=CNc1ccc2cn[nH]c2c1` [Example 18, 5-Bromo-3-[(1H-indazol-6-ylamino)methylidene]-1,3-dihydro-2H-pyrrolo[2,3-b]pyridin-2-one], for which the figures for the IC50 against CDK2, at c-fms and at VEGFR-2 were 10 to 100 nM, 1000 to 10000 nM and 100 to 1000 nM, respectively.
With `NS(=O)(=O)c1ccc(NC=C2C(=O)Nc3nc(Cl)ccc32)cc1` [Example 20, 4-{[(6-Chloro-2-oxo-1,2-dihydro-3H-pyrrolo[2,3-b]pyridin-3-ylidene)methyl]amino}benzenesulfonamide], the IC50 at CDK2 and on VEGFR-2 was 100 to 1000 nM throughout.
Regarding `O=C1Nc2nc(Cl)ccc2C1=CNc1ccc2ncccc2c1` [Example 22, 6-Chloro-3-[(6-quinolinylamino)methylidene]-1,3-dihydro-2H-pyrrolo[2,3-b]pyridin-2-one], the IC50 against c-fms and on VEGFR-2 was 1000 to 10000 nM in each case.
For the compound `CCOC(=O)c1cnc2c(c1)C(=CNc1ccc3ncccc3c1)C(=O)N2` [Example 25, Ethyl 2-oxo-3-[(6-quinolinylamino)methylidene]-2,3-dihydro-1H-pyrrolo[2,3-b]pyridine-5-carboxylate], the half-maximal inhibitory concentration (IC50) against CDK2 and on VEGFR-2 was 100 to 1000 nM throughout.
